According to patent publication US12104178B2, “DHFR tunable protein regulation” (Obsidian Therapeutics, Inc., priority 2017, dated 2024):

Key:
T cells = assay: IL12/IL2 effect on T cell expansion and IFNgamma positive CD4+/CD8+ T cells; assay type: cell-based, human
Text: The goal of the study was to determine the T cell stimulation regimen and dose of IL12 needed to maximize T cell persistence and T cell differentiation in vitro, to mimic an in vivo adoptive cell transfer therapy regimen. The study recapitulates the design of the adoptive cell therapy regimen wherein the T cells were initially exposed to the antigen in vitro which results in activation followed by a resting phase and finally in vivo transfer where the T cells encounter the antigen again. T cells were stimulated CD3/CD28 beads or soluble CD3/CD28 on day 0 and the CD3/CD28 stimulus was washed off at the end of 48 hours. Cells were treated with a dose of IL12 ranging from 0.01-1000 ng/mL. On day 9, the Th1 phenotype of the cells was evaluated by examining the frequency of IFNgamma positive CD4+ cells and CD8+ cells. On day 14, cells were divided into two groups—one group received a second CD3/CD28 stimulation and a second group that was not stimulated. On day 16, the Th1 phenotype was evaluated in both groups using FACS.
To test the requirement of IL2 and IL12 for T cells expansion and activation, T cells were stimulated with soluble CD3/CD28, CD3/CD28 Dynabeads or left unstimulated for two days. Each of these groups was further split into two sub groups. One sub group was treated with IL2 and 100 ng/ml of IL12 while the second sub group was treated with IL2 only for the duration of the stimulation. For the soluble CD3/CD28 stimulated cells, a third subgroup that was only treated with 100 ng/ml of IL12 was also included.
The effect of IL12 on T cell activation was measured by determining the frequency of IFNgamma positive CD4+ and CD8+ T cells. IFNg is produced by activated T cells. Three different stimulation protocols were used. In the first protocol, cells were stimulated with CD3/CD28 dynabeads for 2 days, following which the beads were washed off and the cells were treated with varying concentrations of IL12 for 7 days (from day 2 to day 9). At day 9, cells were restimulated with soluble CD3/CD28 and the frequency of IFNgamma positive cells was determined by FACS. […] In the second protocol, following 2 day CD3/CD28 dynabeads stimulation, T cells were maintained in culture for a longer duration of 14 days i.e. from day 2 to day 16. At day 16, cells were restimulated with soluble CD3/CD28. At day 16, the frequency of IFNgamma positive cells was measured. […] In the third protocol, T cells were initially stimulated for 2 days with CD3/CD28 dynabeads and IL2, followed by treatment with IL2 only for 9 days (i.e. from day 2 to day 11), followed by IL12 treatment for 2 to 5 days. In the last two days of the experiment, cells were also restimulated with soluble CD3/CD28. IFNgamma positive CD4 and CD8 cells were measured using FACS. The third protocol mimics the environment that is presented to T cells in adoptive cell therapy, both during in vitro transduction and T cells expansion as well as the in vivo.

Human T cells = assay: IL12 induced differentiation of human T cells, IFN gamma / CD3 flow cytometry; assay type: cell-based; conditions: IL12 treated (untreated 0.21)
Method: IL12 promotes the differentiation of naïve T cells into Th1 cells which results in the secretion of IFN gamma from T cells. Human T cells were treated with IL12 or left untreated and analyzed by flow cytometry for the expression of IFN gamma and T cell marker CD3.

NK-92 cells [1] = assay: NK-92 activation markers with IL12 (Table 83); assay type: cell-based; conditions: IL12 10 ng/ml, 18 h
Method: (§1) The dependency of the NK-92 cells on cytokines for activation was tested. […] The cells were cultured for 18 hours in the presence of IL12 (10 ng/ml) or varying concentrations of IL15 (100 ng/ml, 20 ng/ml, 4 ng/ml, 0.8 ng/ml, 0.16 ng/ml, 0.032 ng/ml, 0.0064 ng/ml and 0.00128 ng/ml). NK-92 cell activation in response to IL15 and IL12 treatment was evaluated by FACS analysis using a panel of markers whose increased expression is associated with NK activation. These include NKG2D, CD71, CD69; chemokine receptors such as CCR5, CXCR4, and CXCR3, Perforin, Granzyme B and Interferon gamma (IFNg). Prior to FACS analysis for IFNg, cells were cultured for 4 hours with Brefeldin A. NK cells respond to external stimuli such as cytokines in their environment through the phosphorylation of proteins JAK/STAT, ERK, and p38/MAPK pathways which are important for cell activation, signaling and differentiation pathways. The phosphorylation of AKT, STAT3 and STAT5 in response to cytokine addition was measured by FACS. Since phosphorylation events are transient NK-92 cells were treated with the cytokines for 15 or 60 minutes, prior to the analysis.

NK-92 cells [2] = assay: Cytokine dependent proliferation of NK-92, Jurkat and SupT1 cells; assay type: cell-based; conditions: 3 days
Method: The dependency of immune cells on cytokines for proliferation was tested in NK-92 cells and T cell lines Jurkat cells and SupT1 cells. Cells were seeded at 40,000 per well and cultured in the presence of IL2 or IL15 for 3 days.

NK-92 cells [3] = assay: NK-92 activation markers with IL15 (Tables 82, 84); assay type: cell-based; conditions: for pSTAT5 (15 mins) / pSTAT5 (60 mins) / CD69 / CXCR4 / Granzyme B / IFNgamma / Perforin: NK-92 cells, fold change; for pSTAT5 (15 mins) / pSTAT5 (60 mins): FACS; for CD69 / CXCR4 / Granzyme B / IFNgamma / Perforin: activation marker by FACS
Method: as §1
as §1, with “of” for “of IL12 (10 ng/ml) or”, “IL15” for “IL15 and IL12”, “Perform,” for “Perforin,”

HCT-116 = assay: Surface expression of IL15-IL15Ra fusion constructs, PE-IL15Ra antibody FACS; assay type: cell-based, human; conditions: for Median Fluorescence Intensity, surface IL15-IL15Ra: 24 h
Method: Membrane bound-IL15-IL15Ra constructs (OT-IL15-008 to OT IL-15-011) were transduced into human colorectal carcinoma cell line, HCT-116 and stable integrants were selected with 2 μg of puromycin.
Surface expression of IL15-IL15Ra fusion constructs was examined by staining with PE-conjugated IL15Ra antibody (Cat no. 330207, Biolegend, San Diego, CA). The median fluorescence intensity obtained with the different constructs in the presence or absence of the corresponding ligand is presented in Table 53. The stabilization ratio was calculated as the fold change in fluorescence intensity in ligand treated samples compared to treatment with DMSO (i.e. in the absence of ligand) with the same construct. The destabilization ratio was calculated as the fold change in fluorescence intensity in the DD regulated constructs compared to the constitutive construct (OT-IL15-008) in the absence of the ligand. Destabilization ratios less than 1 and stabilization ratios greater than 1 are desired in DDs.
Membrane bound-IL15-IL15Ra constructs (OT-IL15-008 to OT IL15-011) were transduced into human colorectal carcinoma cell line, HCT-116 and stable integrants were selected with 2 μg of puromycin.
Surface expression of IL15-IL15Ra fusion constructs was examined by staining with PE-conjugated IL15Ra antibody (Cat no. 330207, Biolegend, San Diego, CA). The median fluorescence intensity obtained with the different constructs in the presence or absence of the corresponding ligand is presented in Table 55.
The stabilization ratio was calculated as the fold change in GFP intensity in ligand treated samples compared to treatment with DMSO (i.e. in the absence of ligand) with the same construct. The destabilization ratio was calculated as the fold change in GFP intensity in the DD regulated constructs compared to the constitutive construct (OT-IL15-008) in the absence of the ligand. Destabilization ratios less than 1 and stabilization ratios greater than 1 are desired in DDs.

HEK-293T cells = assay: IL15 western blot of DD IL15-IL15Ra, transient transfection; assay type: cell-based, human; conditions: 10 μM Trimethoprim or 1 μM Shield-1, 24 h
Method: To test ligand dependent IL15-IL15Ra production, 1 million HEK-293T cells were plated in a 6-well plate in growth media containing DMEM and 10 FBS and incubated overnight at 37° C., 5% CO2. […] Cells were harvested and IL15 levels are analyzed via western blotting using human IL15 antibody (Abcam, Cambridge, UK).

HEK 293T cells = assay: GFP-hDHFR C terminus fusions, MFI (FACS); assay type: cell-based, human; conditions: 1 μM MTX or 50 μM TMP, 48 h
Method: DDs may be positioned upstream or downstream of the payload within an SRE. hDHFR mutants generated by structure guided mutagenesis as discussed in example 2 were fused at the C-terminus of GFP to test if the hDHFR mutants can destabilize proteins of interest when fused to the C-terminus of the protein of interest. A linker, GGSGGG (SEQ ID NO. 6413) was placed between GFP and hDHFR and cloned into pLVX.IRES. Puro.
Following the incubation, median fluorescence intensity (MFI) was measured using FACS.

IL12: cytokine added to T cells or NK-92 cells
Requirement for T cell expansion (FIG. 37A) (T cells; 14 days, CD3/CD28 stimulation): may be dispensable | IL12 dose causing Th1-skewing and IFN gamma production (T cells; T cells in vitro, day 16): 0.1 ng/mL | EC50, IFNgamma positive cells (T cells; first protocol (7 days IL12), CD8 cells): 0.05 ng/mL | EC50, IFNgamma positive cells (T cells; second protocol (14 days), CD4 cells): 0.012 ng/mL | EC50, IFNgamma positive cells (T cells; second protocol (14 days), CD8 cells): 0.065 ng/mL | EC50, IFNgamma positive cells (T cells; third protocol, IL12 final 5 days, CD4 cells): 0.024 ng/mL | EC50, IFNgamma positive cells (T cells; third protocol, IL12 final 5 days, CD8 cells): 0.04 ng/mL | Percentage of IFN gamma positive T cells (Human T cells): 22.3% | Fold change in MFI vs untreated, CCR5 (NK-92 cells [1]): 1.60 | Fold change in MFI vs untreated, Granzyme (NK-92 cells [1]): 1.87 | Fold change in MFI vs untreated, IFNg (NK-92 cells [1]): 1.74 | Fold change in MFI vs untreated, Perforin (NK-92 cells [1]): 1.67 | Fold change vs untreated, IFNg (supernatant) (NK-92 cells [1]): 666.15

IL15: cytokine added to NK-92 cells
NK-92 cell numbers (NK-92 cells [2]): increased cell numbers | NK-92 activation marker expression (NK-92 cells [3]; IL15 0.00128-100 ng/ml, 18 h): increase in the expression of CD69, CXCR4, Perforin, Granzyme B, and IFNg | pSTAT5 (15 mins) (NK-92 cells [3]; IL15 0.00128 ng/ml): 0.99 | pSTAT5 (60 mins) (NK-92 cells [3]; IL15 0.00128 ng/ml): 1.04 | CD69 (NK-92 cells [3]; IL15 0.00128 ng/ml): 1.07 | CXCR4 (NK-92 cells [3]; IL15 0.00128 ng/ml): 1.15 | Granzyme B (NK-92 cells [3]; IL15 0.00128 ng/ml): 0.88 | IFNgamma (NK-92 cells [3]; IL15 0.00128 ng/ml): 1.19 | Perforin (NK-92 cells [3]; IL15 0.00128 ng/ml): 0.85 | pSTAT5 (15 mins) (NK-92 cells [3]; IL15 0.0064 ng/ml): 1.03 | pSTAT5 (60 mins) (NK-92 cells [3]; IL15 0.0064 ng/ml): 1.26 | CD69 (NK-92 cells [3]; IL15 0.0064 ng/ml): 1.11 | CXCR4 (NK-92 cells [3]; IL15 0.0064 ng/ml): 1.19 | Granzyme B (NK-92 cells [3]; IL15 0.0064 ng/ml): 0.78 | IFNgamma (NK-92 cells [3]; IL15 0.0064 ng/ml): 0.85 | Perforin (NK-92 cells [3]; IL15 0.0064 ng/ml): 0.79 | pSTAT5 (15 mins) (NK-92 cells [3]; IL15 0.032 ng/ml): 1.23 | pSTAT5 (60 mins) (NK-92 cells [3]; IL15 0.032 ng/ml): 1.67 | CD69 (NK-92 cells [3]; IL15 0.032 ng/ml): 1.05 | CXCR4 (NK-92 cells [3]; IL15 0.032 ng/ml): 1.14 | Granzyme B (NK-92 cells [3]; IL15 0.032 ng/ml): 0.92 | IFNgamma (NK-92 cells [3]; IL15 0.032 ng/ml): 0.95 | Perforin (NK-92 cells [3]; IL15 0.032 ng/ml): 0.92 | pSTAT5 (15 mins) (NK-92 cells [3]; IL15 0.8 ng/ml): 1.76 | pSTAT5 (60 mins) (NK-92 cells [3]; IL15 0.8 ng/ml): 2.17 | CD69 (NK-92 cells [3]; IL15 0.8 ng/ml): 1.18 | CXCR4 (NK-92 cells [3]; IL15 0.8 ng/ml): 2.10 | Granzyme B (NK-92 cells [3]; IL15 0.8 ng/ml): 1.09 | IFNgamma (NK-92 cells [3]; IL15 0.8 ng/ml): 1.92 | Perforin (NK-92 cells [3]; IL15 0.8 ng/ml): 1.16 | pSTAT5 (15 mins) (NK-92 cells [3]; IL15 4 ng/ml): 1.81 | pSTAT5 (60 mins) (NK-92 cells [3]; IL15 4 ng/ml): 2.35 | CD69 (NK-92 cells [3]; IL15 4 ng/ml): 1.59 | CXCR4 (NK-92 cells [3]; IL15 4 ng/ml): 3.03 | Granzyme B (NK-92 cells [3]; IL15 4 ng/ml): 1.16 | IFNgamma (NK-92 cells [3]; IL15 4 ng/ml): 2.76 | Perforin (NK-92 cells [3]; IL15 4 ng/ml): 1.28 | pSTAT5 (15 mins) (NK-92 cells [3]; IL15 20 ng/ml): 1.96 | pSTAT5 (60 mins) (NK-92 cells [3]; IL15 20 ng/ml): 2.35 | CD69 (NK-92 cells [3]; IL15 20 ng/ml): 2.10 | CXCR4 (NK-92 cells [3]; IL15 20 ng/ml): 3.62 | Granzyme B (NK-92 cells [3]; IL15 20 ng/ml): 1.40 | IFNgamma (NK-92 cells [3]; IL15 20 ng/ml): 5.55 | Perforin (NK-92 cells [3]; IL15 20 ng/ml): 1.57 | pSTAT5 (15 mins) (NK-92 cells [3]; IL15 100 ng/ml): 1.98 | pSTAT5 (60 mins) (NK-92 cells [3]; IL15 100 ng/ml): 2.34 | CD69 (NK-92 cells [3]; IL15 100 ng/ml): 1.91 | CXCR4 (NK-92 cells [3]; IL15 100 ng/ml): 3.87 | Granzyme B (NK-92 cells [3]; IL15 100 ng/ml): 1.48 | IFNgamma (NK-92 cells [3]; IL15 100 ng/ml): 9.00 | Perforin (NK-92 cells [3]; IL15 100 ng/ml): 1.67

OT-IL15-006: IL15-IL15Ra fusion with ecDHFR (R12Y, E129K) DD
Median Fluorescence Intensity, surface IL15-IL15Ra (HCT-116; 10 μM TMP): 2978 | Median Fluorescence Intensity, surface IL15-IL15Ra (HCT-116; DMSO): 764 | Stabilization ratio (HCT-116; TMP vs DMSO): 3.90 | Destabilization ratio (HCT-116; vs constitutive OT-IL15-008, no ligand): 0.14 | IL15 stabilization by western blot (FIG. 24A) (HEK-293T cells): modest ligand dependent stabilization of IL15

B1: OT-hDHFRC-015: GFP-hDHFR (A125F, Y122I) (protein, UniProt P00374 1-187, looked up, variant A125F Y122I)
Dihydrofolate reductase: MVGSLNCIVAVSQNMGIGKNGDLPWPPLRNEFRYFQRMTTTSSVEGKQNLVIMGKKTWFSIPEKNRPLKGRINLVLSRELKEPPQGAHFLSRSLDDALKLTEQPELANKVDMVWIVGGSSVIKEFMNHPGHLKLFVTRIMQDFESDTFFPEIDLEKYKLLPEYPGVLSDVQEEKGIKYKFEVYEKND
modifications: N-terminal GFP fusion
MFI change over DMSO, GFP-hDHFR C terminus fusion (FIG. 20) (HEK 293T cells): several fold increase in MFI over DMSO with both MTX and TMP
